What was measured:
Balb/c mouse [1] = assay: In vivo phototoxicity test (auricular light irradiation, ear swelling due to ketoprofen); conditions: UVA 40 J/cm^2, 24 hours after irradiation, toward KP group
Protocol: The experiment below was carried out by partially refining the method of Gerberick et al., (Food Chem. Toxicol., 27, 813-819 (1989)). That is, a Balb/c mouse (female, 9 to 11 weeks old) was used as a test animal, each of the test substances {4-tert-butyl-4′-methoxydibenzoylmethane (BM-DBM), 2-ethylhexyl dimethoxybenzylidenedioxoimidazolidine propionate (DB-DIH), terephthalylidene-3,3′-dicamphor-10,10′-disulfonic acid (TP-DCS), n-hexyl 2-(4-diethylamino-2-hydroxybenzoyl)benzoate (DHB-BH)} and 2% ketoprofen (KP) were dissolved in ethanol and applied to the auricle, and it was irradiated with UVA at 40 J/cm^2. 24 hours after UVA irradiation, the ear thickness was measured, and an increase from the ear thickness prior to the start of the test was calculated. The effect in suppressing phototoxicity due to KP was evaluated for each test substance using as an index the degree of suppression of the increase in ear thickness due to KP, that is, the ear swelling suppression rate (%) toward the KP group.

Balb/c mouse [2] = assay: In vivo photoallergy test 1 (refined Murine Local Lymph Node Assay, 3H-TdR uptake); conditions: UVA 20 J/cm^2, 3 days, toward KP group
Protocol: A KP photoallergy detection test was carried out by refining the Murine Local Lymph Node Assay (LLNA) proposed by the Interagency Coordinating Committee on the Validation of Alternative Methods (ICCVAM). That is, a Balb/c mouse (female, 8 to 12 weeks old) was used as a test animal, a solution of a test substance {4-tert-butyl-4′-methoxydibenzoylmethane (BM-DBM)} and 2% ketoprofen (KP) prepared in acetone—olive oil (4:1, v/v) was applied to the back of the pinna, and it was irradiated with UVA at 20 J/cm^2. This sensitization induction treatment was carried out for 3 days in succession. 5 days after starting the sensitization, 20 μCi per mouse of ^3H-methyl thymidine (^3H-TdR)/PBS solution was injected into the tail vein, and 5 hours later an auricular lymph node was removed. The removed lymph node was made into a single lymph cell suspension using a cell strainer, and after washing twice with PBS was then allowed to stand in a 5% trichloroacetic acid (TCA) solution at 4° C. overnight to thus make DNA precipitate. After the precipitate was suspended in 1 mL of 5% TCA solution, the radioactivity was measured using a liquid scintillation counter. The effect of the test substance in suppressing photoallergy due to KP was evaluated using as an index the degree of suppression of the increase in ^3H-TdR uptake by KP, that is, the ^3H-TdR uptake suppression rate (%) toward the KP group.

[3] = tested on: Hartley white female guinea pig; assay: In vivo photoallergy test 2 (skin photoallergy test, Adjuvant and Strip Method); conditions: 2% KP + 2% test substance, toward KP group
Protocol: A skin photoallergy test using a guinea pig was carried out by partially refining the Adjuvant and Strip Method of Sato et al., (The Nishinihon Journal of Dermatology, 42, 831-837 (1980)). That is, the back of the neck of a Hartley white female guinea pig (a group of 8 animals) was depilated, an adjuvant was administered to four corners of 2×2 cm, a 2% ethanol solution of ketoprofen (KP) or a solution of 2% KP+2% test substance {4-tert-butyl-4′-methoxydibenzoylmethane ([…])} was openly applied to the 2×2 cm area, and 1 hour later it was irradiated with UVA (10 J/cm^2). This sensitization induction treatment was carried out for 5 days in succession. 3 weeks after starting the sensitization, the back of the hip was depilated, the same solution as for the sensitization was openly applied to a 2×2 cm area, and 1 hour later it was irradiated with UVA (10 J/cm^2) to thus carry out a photoinduction. A skin reaction 24 and 48 hours after the irradiation was evaluated in accordance with the above-mentioned criteria of Sato et al. The effect of BM-DBM in suppressing photoallergy due to KP was evaluated by erythema and swelling suppression rates (%) toward the KP group.

[4] = test substance 0.5% with 2% KP in ethanol on auricle

With `COc1ccc(C(=O)CC(=O)c2ccc(C(C)(C)C)cc2)cc1` [BM-DBM, 4-tert-butyl-4′-methoxydibenzoylmethane] the “Ear Swelling Suppression Rate (%)” value (Balb/c mouse [1]; test substance 0.1% with 2% KP in ethanol on auricle) was 41%, the “Ear Swelling Suppression Rate (%)” value (Balb/c mouse [1]; test substance 0.3% with 2% KP in ethanol on auricle) was 81% and the “Ear Swelling Suppression Rate (%)” value (Balb/c mouse [1]; [4]) was 98%. For the same compound, the “^3H-TdR Uptake Suppression Rate (%)” value (Balb/c mouse [2]; BM-DBM 0.06% with 2% KP in acetone-olive oil) was 30%, the “^3H-TdR Uptake Suppression Rate (%)” value (Balb/c mouse [2]; BM-DBM 0.13% with 2% KP in acetone-olive oil) was 51% and the “^3H-TdR Uptake Suppression Rate (%)” value (Balb/c mouse [2]; BM-DBM 0.25% with 2% KP in acetone-olive oil) was 24%. The “^3H-TdR Uptake Suppression Rate (%)” value (Balb/c mouse [2]; BM-DBM 0.50% with 2% KP in acetone-olive oil) was 94%, the “^3H-TdR Uptake Suppression Rate (%)” value (Balb/c mouse [2]; BM-DBM 1.00% with 2% KP in acetone-olive oil) was 99% and the “Erythema/Swelling Suppression Rate (%) After 24 Hr” value ([3]; UVA 10 J/cm^2, 24 hours after photoinduction irradiation) was 69%. For the same compound, the “Erythema/Swelling Suppression Rate (%) After 48 Hr” value ([3]; UVA 10 J/cm^2, 48 hours after photoinduction irradiation) was 74%.

With `CCCCCCOC(=O)c1ccccc1C(=O)c1ccc(N(CC)CC)cc1O` [DHB-BH, n-hexyl 2-(4-diethylamino-2-hydroxybenzoyl)benzoate] the “Ear Swelling Suppression Rate (%)” value (Balb/c mouse [1]; [4]) was 84%.

In the case of `CCCCC(CC)COC(=O)CCN1C(=O)NC(=Cc2ccc(OC)c(OC)c2)C1=O` (stereo not shown) [DB-DIH, 2-ethylhexyl dimethoxybenzylidenedioxoimidazolidine propionate], the “Ear Swelling Suppression Rate (%)” value (Balb/c mouse [1]; [4]) is reported as 34%.

With `CC1(C)C2CCC1(CS(=O)(=O)O)C(=O)/C2=C\c1ccc(/C=C2/C(=O)C3(CS(=O)(=O)O)CCC2C3(C)C)cc1` [TP-DCS, terephthalylidene-3,3′-dicamphor-10,10′-disulfonic acid] the “Ear Swelling Suppression Rate (%)” value (Balb/c mouse [1]; [4]) was 65%.
